Results from patent US10233157B2, “SIK inhibitor for use in a method of treating an inflammatory and/or immune disorder” (Dana-Farber Cancer Institute, Inc., priority 2012, dated 2019).
Entries after “also recorded” stand apart in the source; their conditions may differ.

What was measured:
[1] = tested on: TLR-stimulated macrophages; test: qPCR of CREB-dependent gene mRNA in TLR-stimulated macrophages; assay type: cell-based, mouse
Protocol: Bone-marrow derived macrophages were differentiated for 7 days in DMEM supplemented with 5 ng/ml recombinant M-CSF (R&D systems), 2 mM glutamine, 10% foetal calf serum, penicillin and streptomycin. […]
mRNA was extracted from macrophages using the RNeasy Micro Kit following the manufacturers' instructions (Qiagen). cDNA was generated from 1 μg of total RNA using the iScript cDNA synthesis kit and quantified by qPCR using the SsoFast EvaGreen Supermix on a CFX96 real time system (Bio-Rad Laboratories). The relative expression of each gene was calculated from Ct values using the Pfaffl method^30 and was normalized against the mRNA levels of 18S RNA. The following primers were used: IL-10-F, […]; IL-10-R, […]; c-Fos-F, […]; c-Fos-R, […]; nurr1-F, […]; nurr1-R, […]; nurr77-F, […]; nurr77-R, […]; 18S-F, […]; 18S-R, […]; IL-1ra-F, […]; IL-1ra-R, […]; SPHK1-F, […]; SPHK1-R, […]; LIGHT-F, […]; LIGHT-R, […]; ArgI-F, […]; ArgI-R, […]; IFN-F, […]; IFNγ-R, […].
[…]. Biochem J 434:93-104) using the indicated antibodies. RNA was extracted using the RNeasy Micro Kit (Qiagen). cDNA was generated using the iScript cDNA synthesis kit and quantified by qPCR using the SsoFast EvaGreen Supermix (Bio-Rad Laboratories). The relative expression of each gene was calculated from Ct values using the Pfaffl method (Pfaffl M W (2001) A new mathematical model for relative quantification in real-time RT-PCR. Nucleic Acids Res 29:e45) and was normalized against the mRNA levels of 18S or GAPDH RNA. Fold-induction for each gene was reported relative to untreated control cells, which was set to 1. The concentrations of TNFα, IL-6, IL-10, IL-12p40, and RANTES in culture supernatants were measured using the Bio-Plex Pro Assay system from Bio-Rad. Further details in supplementary information.
mRNA was extracted from cells using the RNeasy Micro Kit following the manufacturers' instructions (Qiagen). cDNA was generated from 1 μg of total RNA using the iScript cDNA synthesis kit and quantified by qPCR using the SsoFast EvaGreen Supermix on a CFX96 real time system (Bio-Rad Laboratories). The relative expression of each gene was calculated from Ct values using the Pfaffl method (5) and was normalized against the mRNA levels of 18S RNA or GAPDH. Results are reported relative to untreated control cells, which was set to 1. The following primers were used: […]

CRTC3 = CRTC3 phosphorylation in macrophages (phosphoproteomics, immunoblotting); assay type: cell-based
Protocol: RAW264.7 cells were labelled using the Stable Isotope Labelling of Amino Acids in Cell Culture (SILAC) method. […] The cells were lysed in detergent-free lysis buffer (8 M urea, 50 mM Tris pH8.2, 10 mM glycerol 2-phosphate, 50 mM sodium fluoride, 5 mM sodium pyrophosphate, 1 mM EDTA, 1 mM sodium orthovanadate, 10 mM DTT, 1 mM PMSF, 1 μg/ml aprotinin, 1 μg/ml leupeptin), the extract clarified by centrifugation and protein concentration determined using the Bradford method. 2 mg of cell extract protein from each experimental condition were mixed in a 1:1:1 ratio and then alkylated with 50 mM iodoacetamide for 30 min. […] Phosphopeptides from these samples were enriched using a standard Fe^3+-IMAC enrichment protocol^32 and measured by LC-MS/MS. […] The data was analysed using MaxQUANT^33.
Cells were rinsed in ice-cold PBS and extracted in lysis buffer (50 mM Tris/HCl pH 7.4, 1 mM EDTA, 1 mM EGTA, 50 mM NaF, 5 mM sodium pyrophosphate, 10 mM sodium β-glycerol 1-phosphate, 1 mM dithiothreitol, 1 mM sodium orthovanadate, 0.27 M sucrose, 1% (v/v) Triton X-100, 1 μg/ml aprotinin, 1 μg/ml leupeptin and 1 mM phenylmethylsulphonyl fluoride). Cell extracts were clarified by centrifugation at 14000×g for 10 min at 4° C. and protein concentrations were determined using the Bradford assay. […]

LKB1−/− cells = test: CREB-dependent gene transcription in IL-1 stimulated LKB1+/+ and LKB1−/− MEFs; assay type: cell-based, mouse
[2] = LPS-stimulated macrophages with MRT67307

O=C(NCCCNc1nc(Nc2cccc(CN3CCOCC3)c2)ncc1C1CC1)C1CCC1 [MRT67307]
time at which IL-10 mRNA levels reach a maximum [1, 2]: 1 h
time at which IL-10 mRNA returns to near basal levels [1, 2]: 4 h
mRNA of CREB-dependent genes c-fos, nurr1 and nurr77 ([1]; TLR-stimulated macrophages): increase
IL-10 mRNA ([1]; TLR/LPS-stimulated macrophages): dramatically increased
phosphorylation of CRTC3 (CRTC3; 2 μM MRT67307, Pam3CSK4-stimulated macrophages, phosphoproteomic study): robustly dephosphorylated at Ser62, Ser329 and Ser370; also recorded: blocked
phosphorylation of CRTC3 at Ser370 (CRTC3; LPS stimulation): blocked
CREB-dependent gene transcription (LKB1−/− cells; LKB1+/+ cells): enhanced
transcription of Nurr1 and Nurr77 (LKB1−/− cells; LKB1−/− cells): only be increased to a small extent
